In patent publication US20170015555A1, “LONG-TERM PRESERVATION AND NOVEL APPLICATION OF CHLOROUS ACID AQUEOUS SOLUTION FORMULATION” (priority 2013, published 2017):

Tests used:
Type in all cases: cell-based
[1] = system: Enterohemorrhagic Escherichia coli O157; assay: Sterilizing effect on floor surface after wiping off imitation vomit, carpet; details: 1000 ppm available chlorine
From the text: (§1) 1) Chlorous acid aqueous solution formulation (see Example 1: Table 11) Treatment sheet (material: 100% cotton): (about 27×40 cm) *Impregnated at a ratio of weight of treatment sheet (g): amount of liquid (ml)=1:3 2) Imitation vomit Miso solution: adjusted to pH of 2 with hydrochloric acid 3) Test Microbes that were Used E. coli: Escherichia coli IF03927 Staphylococcus aureus: Staphylococcus aureus IF0 12732 Thermoduric Microbes (Bacillus cereus): Bacillus cereus NBRC15305 Microbes of the genus Salmonella: Salmonella Enteritidis IF03313 Enterohemorrhagic Escherichia coli O157: Escherichia coli O157 Enterohemorrhagic Escherichia coli O111: Escherichia coli O111 Enterohemorrhagic Escherichia coli O26: Escherichia coli O26
(§2) (1) Imitation vomit was spread in an area about the size of an A4 sheet. (2) 5 dry sheets were laid thereon. (3) An agent solution was poured on the dry sheets to wipe off the imitation vomit. (4) A cotton swab was soaked with sterile saline. A portion where imitation vomit was spread was scrubbed with the cotton swab to collect microbes remaining on the floor. After suspending in saline, the solution was spread on a petri dish and cultured. The number of each of the microbes was measured. (5) Test operations 3 and 4 were repeated a total of 7 times (repeated until the imitation vomit could be removed completely).

[2] = system: Staphylococcus aureus IF0 12732; assay: as above; details: 1000 ppm available chlorine
From the text: as §1, §2

[3] = system: Bacillus cereus NBRC15305; assay: as above
From the text: as §1, §2

[4] = system: E. coli: Escherichia coli IF03927; assay: as above; details: 1000 ppm available chlorine
From the text: as §1, §2

[5] = system: Enterohemorrhagic Escherichia coli O111; assay: as above
From the text: as §1, §2

[6] = system: Enterohemorrhagic Escherichia coli O26; assay: as above; details: 1000 ppm available chlorine
From the text: as §1, §2

pathogenic microbes = assay: Sterilizing effect on floor surface when treating vomit, summary over all tested microbes and floors
From the text: as §1
(1) Imitation vomit was spread in an area about the size of an A4 sheet. (2) 5 agent solution-containing treatment sheets were laid thereon. (3) The imitation vomit was wiped off. (4) A cotton swab was soaked with sterile saline. A portion where imitation vomit was spread was scrubbed with the cotton swab to collect microbes remaining on the floor. After suspending in saline, the solution was spread on a petri dish and cultured. The number of each of the microbes was measured. […]
(1) Imitation vomit was spread in an area about the size of an A4 sheet. […] The number of each of the microbes was measured. […]

[7] = system: Enterohemorrhagic Escherichia coli O157; assay: Sterilizing effect on floor surface after wiping off imitation vomit, rubber mattress; details: 1000 ppm available chlorine
From the text: as §1
as §2, with “agent solution-containing treatment” for “dry”, “The imitation vomit” for “An agent solution”, “wiped off.” for “poured on the dry sheets to wipe off the imitation vomit.”

[8] = system: Staphylococcus aureus IF0 12732; assay: as above; details: 1000 ppm available chlorine
From the text: as §1
as §2, with “agent solution-containing treatment” for “dry”, “The imitation vomit” for “An agent solution”, “wiped off.” for “poured on the dry sheets to wipe off the imitation vomit.”

[9] = system: Bacillus cereus NBRC15305; assay: as above; details: 1000 ppm available chlorine
From the text: as §1
as §2, with “agent solution-containing treatment” for “dry”, “The imitation vomit” for “An agent solution”, “wiped off.” for “poured on the dry sheets to wipe off the imitation vomit.”

[10] = system: Microbes of the genus Salmonella: Salmonella Enteritidis IF03313; assay: as above; details: 1000 ppm available chlorine
From the text: as §1
as §2, with “agent solution-containing treatment” for “dry”, “The imitation vomit” for “An agent solution”, “wiped off.” for “poured on the dry sheets to wipe off the imitation vomit.”

[11] = system: E. coli: Escherichia coli IF03927; assay: as above; details: 1000 ppm available chlorine
From the text: as §1
as §2, with “agent solution-containing treatment” for “dry”, “The imitation vomit” for “An agent solution”, “wiped off.” for “poured on the dry sheets to wipe off the imitation vomit.”

[12] = system: Enterohemorrhagic Escherichia coli O111; assay: as above
From the text: as §1
as §2, with “agent solution-containing treatment” for “dry”, “The imitation vomit” for “An agent solution”, “wiped off.” for “poured on the dry sheets to wipe off the imitation vomit.”

[13] = system: Enterohemorrhagic Escherichia coli O26; assay: as above; details: 1000 ppm available chlorine
From the text: as §1
as §2, with “agent solution-containing treatment” for “dry”, “The imitation vomit” for “An agent solution”, “wiped off.” for “poured on the dry sheets to wipe off the imitation vomit.”

[14] = stored at 25° C. Day 0, 1000 ppm available chlorine
[15] = stored at 25° C. Day 7, Sodium Hypochlorite, 0 ppm
[16] = stored at 25° C. Day 0, 1000 ppm
[17] = 1000 ppm available chlorine, stored at 25° C. Day 0
[18] = 1000 ppm, stored at 25° C. Day 7

OCl [Sodium Hypochlorite, sodium hypochlorite]
Number of Times Wiped 1 Time (remaining microbes) ([1]; stored at 25° C. Day 0): <10 | Number of Times Wiped 2 Times (remaining microbes) ([1]; stored at 25° C. Day 0): <10 | Number of Times Wiped 3 Times (remaining microbes) ([1]; stored at 25° C. Day 0): <10 | Number of Times Wiped 1 Time (remaining microbes) ([1]; stored at 25° C. Day 7): <10 | Number of Times Wiped 2 Times (remaining microbes) ([1]; stored at 25° C. Day 7): <10 | Number of Times Wiped 3 Times (remaining microbes) ([1]; stored at 25° C. Day 7): <10 | Number of Times Wiped 1 Time (remaining microbes) ([2]; stored at 25° C. Day 0): <10 | Number of Times Wiped 2 Times (remaining microbes) ([2]; stored at 25° C. Day 0): <10 | Number of Times Wiped 3 Times (remaining microbes) ([2]; stored at 25° C. Day 0): <10 | Number of Times Wiped 1 Time (remaining microbes) ([2]; stored at 25° C. Day 7): <10 | Number of Times Wiped 2 Times (remaining microbes) ([2]; stored at 25° C. Day 7): <10 | Number of Times Wiped 3 Times (remaining microbes) ([2]; stored at 25° C. Day 7): <10 | Number of Times Wiped 1 Time (remaining microbes) [3, 14]: <10 | Number of Times Wiped 2 Times (remaining microbes) [3, 14]: <10 | Number of Times Wiped 3 Times (remaining microbes) [3, 14]: <10 | Number of Times Wiped 1 Time (remaining microbes) [3, 15]: 6.7 × 10^3 | Number of Times Wiped 2 Times (remaining microbes) [3, 15]: 5.2 × 10^3 | Number of Times Wiped 3 Times (remaining microbes) [3, 15]: 4.9 × 10^3 | Number of Times Wiped 7 Times (remaining microbes) [3, 15]: 2.0 × 10^3 | Number of Times Wiped 1 Time (remaining microbes) ([4]; stored at 25° C. Day 0): <10 | Number of Times Wiped 2 Times (remaining microbes) ([4]; stored at 25° C. Day 0): <10 | Number of Times Wiped 3 Times (remaining microbes) ([4]; stored at 25° C. Day 0): <10 | Number of Times Wiped 1 Time (remaining microbes) ([4]; stored at 25° C. Day 7): <10 | Number of Times Wiped 2 Times (remaining microbes) ([4]; stored at 25° C. Day 7): <10 | Number of Times Wiped 3 Times (remaining microbes) ([4]; stored at 25° C. Day 7): <10 | Number of Times Wiped 1 Time (remaining microbes) [5, 16]: <10 | Number of Times Wiped 2 Times (remaining microbes) [5, 16]: <10 | Number of Times Wiped 3 Times (remaining microbes) [5, 16]: <10 | Number of Times Wiped 1 Time (remaining microbes) [5, 15]: 2.3 × 10^3 | Number of Times Wiped 2 Times (remaining microbes) [5, 15]: 1.9 × 10^3 | Number of Times Wiped 3 Times (remaining microbes) [5, 15]: 1.1 × 10^3 | Microbes remaining on floor surface, wiped 1 Time ([6]; Day 0 at 25° C.): <10 | Microbes remaining on floor surface, wiped 2 Times ([6]; Day 0 at 25° C.): <10 | Microbes remaining on floor surface, wiped 3 Times ([6]; Day 0 at 25° C.): <10 | Microbes remaining on floor surface, wiped 1 Time ([6]; Day 7 at 25° C.): 8.8 × 10^3 | Microbes remaining on floor surface, wiped 2 Times ([6]; Day 7 at 25° C.): 4.9 × 10^3 | Microbes remaining on floor surface, wiped 3 Times ([6]; Day 7 at 25° C.): 3.0 × 10^3 | sterilization of pathogenic microbes on floor surface by wiping (pathogenic microbes; day 0): could be sterilized | sterilization of pathogenic microbes on floor surface by wiping (pathogenic microbes; preserved for 7 days): there were cases in which pathogenic microbes could not be sterilized | microbes remaining, wiped 1 Time ([7]; stored at 25° C. Day 0): <10 | microbes remaining, wiped 2 Times ([7]; stored at 25° C. Day 0): <10 | microbes remaining, wiped 3 Times ([7]; stored at 25° C. Day 0): <10 | microbes remaining, wiped 1 Time ([7]; stored at 25° C. Day 7): 4.2 × 10^3 | microbes remaining, wiped 2 Times ([7]; stored at 25° C. Day 7): 1.2 × 10^3 | microbes remaining, wiped 3 Times ([7]; stored at 25° C. Day 7): 1.1 × 10^2 | Microbe count on floor, wiped 1 Time ([8]; Day 0 at 25° C.): <10 | Microbe count on floor, wiped 2 Times ([8]; Day 0 at 25° C.): <10 | Microbe count on floor, wiped 3 Times ([8]; Day 0 at 25° C.): <10 | Microbe count on floor, wiped 1 Time ([8]; Day 7 at 25° C.): 8.7 × 10^6 | Microbe count on floor, wiped 2 Times ([8]; Day 7 at 25° C.): 7.3 × 10^3 | Microbe count on floor, wiped 3 Times ([8]; Day 7 at 25° C.): 3.3 × 10^3 | microbes remaining, wiped 1 Time ([9]; stored at 25° C. Day 0): <10 | microbes remaining, wiped 2 Times ([9]; stored at 25° C. Day 0): <10 | microbes remaining, wiped 3 Times ([9]; stored at 25° C. Day 0): <10 | microbes remaining, wiped 1 Time ([9]; stored at 25° C. Day 7): 2.1 × 10^3 | microbes remaining, wiped 2 Times ([9]; stored at 25° C. Day 7): 6.5 × 10^2 | microbes remaining, wiped 3 Times ([9]; stored at 25° C. Day 7): 1.8 × 10^2 | microbes remaining, wiped 1 Time ([10]; stored at 25° C. Day 0): <10 | microbes remaining, wiped 2 Times ([10]; stored at 25° C. Day 0): <10 | microbes remaining, wiped 3 Times ([10]; stored at 25° C. Day 0): <10 | microbes remaining, wiped 1 Time ([10]; stored at 25° C. Day 7): 1.1 × 10^3 | microbes remaining, wiped 2 Times ([10]; stored at 25° C. Day 7): 3.6 × 10^2 | Microbe count on floor, wiped 1 Time ([11]; Day 0 at 25° C.): <10 | Microbe count on floor, wiped 2 Times ([11]; Day 0 at 25° C.): <10 | Microbe count on floor, wiped 3 Times ([11]; Day 0 at 25° C.): <10 | Microbe count on floor, wiped 1 Time ([11]; Day 7 at 25° C.): 2.3 × 10^4 | Microbe count on floor, wiped 2 Times ([11]; Day 7 at 25° C.): 7.8 × 10^3 | Microbe count on floor, wiped 3 Times ([11]; Day 7 at 25° C.): 2.1 × 10^3 | microbes remaining, wiped 1 Time [12, 17]: <10 | microbes remaining, wiped 2 Times [12, 17]: <10 | microbes remaining, wiped 3 Times [12, 17]: <10 | microbes remaining, wiped 1 Time [12, 18]: 1.5 × 10^3 | microbes remaining, wiped 2 Times [12, 18]: 1.0 × 10^3 | microbes remaining, wiped 3 Times [12, 18]: 2.6 × 10^2 | microbes remaining, wiped 7 Times [12, 18]: <10 | microbes remaining, wiped 1 Time ([13]; stored at 25° C. Day 0): <10 | microbes remaining, wiped 2 Times ([13]; stored at 25° C. Day 0): <10 | microbes remaining, wiped 3 Times ([13]; stored at 25° C. Day 0): <10 | microbes remaining, wiped 1 Time ([13]; stored at 25° C. Day 7): 3.2 × 10^3 | microbes remaining, wiped 2 Times ([13]; stored at 25° C. Day 7): 1.0 × 10^3 | microbes remaining, wiped 3 Times ([13]; stored at 25° C. Day 7): 3.0 × 10^2
